13 molecules from patent US11065231B2, “Compounds and methods for the targeted degradation of interleukin-1 receptor- associated kinase 4 polypeptides” (Arvinas Operations, Inc., priority 2017, dated 2021) can be followed below.

Experiment [1] deals with T1, IRAK4 (Homo sapiens (Human), UniProt Q9NWZ3). Kind of experiment: Biochemical Z'-Lyte FRET assay for IRAK4 kinase inhibition. To be noted: 2 nM enzyme, 1 mM ATP, 2 μM substrate. In a few lines: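 Z′-Lyte FRET phosphorylation of Ser/Thr 7 peptide (2 µM) by 2 nM recombinant IRAK4 at 1 mM ATP in HEPES pH 7.5 with MgCl2/MnCl2, after 10 min enzyme–compound preincubation; 1 h at room temperature, then 1 h development, 460/530 nm emission. Duplicate 12-point, 3-fold curves from 30 µM; IC50 from percent inhibition against ±100% controls.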
T1 sequence (Q9NWZ3 whole entry): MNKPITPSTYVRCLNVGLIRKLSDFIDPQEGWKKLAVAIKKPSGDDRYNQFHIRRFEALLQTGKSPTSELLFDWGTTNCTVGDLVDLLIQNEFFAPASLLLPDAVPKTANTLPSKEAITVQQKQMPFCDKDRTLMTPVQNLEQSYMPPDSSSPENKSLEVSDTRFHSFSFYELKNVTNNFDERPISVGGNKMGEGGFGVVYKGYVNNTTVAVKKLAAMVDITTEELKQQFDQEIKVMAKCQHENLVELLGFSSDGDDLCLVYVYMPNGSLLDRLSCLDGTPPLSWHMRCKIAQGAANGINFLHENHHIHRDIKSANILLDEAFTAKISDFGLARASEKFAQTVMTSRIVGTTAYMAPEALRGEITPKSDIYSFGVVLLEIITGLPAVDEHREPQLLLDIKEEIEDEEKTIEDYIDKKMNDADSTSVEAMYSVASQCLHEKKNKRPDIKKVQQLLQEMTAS

For experiment [2], the target named is T1, IRAK4. The experiment is described as follows: Western blot assay for assessing degradation of IRAK4 in MCF7 cells. In kind it is cell-based. In outline:
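MCF7 cells were treated 24 h with serially diluted compound (0.1% DMSO final), then lysed in RIPA. IRAK4 and IRAK1 levels were measured by western blot with β-actin probed alongside. Percent degradation compared compound-treated with DMSO-treated lysates.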
On the technique in general: In western blotting, separated proteins are transferred to a membrane and probed.

Experiment [3] addresses T1, IRAK4. The experiment is described as follows: ELISA assay for IRAK4 degradation in MCF7 cells. In kind it is cell-based. Conditions: Table 1, 24 hours. The protocol:
Enzyme-Linked Immunosorbent Assay (ELISA) Assay for IRAK4 Degradation.
MCF7 cells, purchased from ATCC (Manassas, Va.), were used at a passage range of 2-19. Cells were prepared and treated with compounds for 24 hours, exactly as described above for the Western blots. The ELISA assay was performed using the kit and instructions described by Abcam (cat. #: ab213472, Abcam Biotechnology, Cambridge, Mass.). Table 1 below provides and compares the ELISA IRAK4 degradation data to the western blot IRAK 4 degradation data for Examples 2, 3, 4, and 5. Furthermore, FIG. 5 is a graph illustrating the ELISA IRAK4 degradation data.
On the technique in general: In an ELISA, binding on a coated surface is turned into a signal by an enzyme label.

For experiment [4], the target named is T1, IRAK4. The experiment is described as follows: Western blots of IRAK4 protein degradation. To be noted: from western blots. In kind it is cell-based.
Setting [5] is: Table 1, 24 hours, read-out: IRAK4 by western DC50.
Where [6] appears, read: Table 5, IRAK4 degradation, 24 hour incubation, read-out: IRAK4 DC50.
[7] abbreviates: Table 5, IRAK4 degradation, 24 hour incubation, read-out: IRAK4 Dmax (%).

What is called IC50 is the point on the concentration scale where inhibition reaches its midpoint. A word on the DC50: it is the concentration at which degradation of the target reaches its halfway point. Usually Dmax stands for the greatest extent of degradation seen. `O=C1CCC(N2C(=O)c3ccc(OCCOCCOCCOCCOCCN4CCN(Cc5ccc6c(c5)nc(NC(=O)c5cccc(C(F)(F)F)c5)n6[C@H]5CC[C@@H](CO)CC5)CC4)cc3C2=O)C(=O)N1` (stereo partly shown) [compound 5, N-(5-((4-(14-((2-(2,6-dioxopiperidin-3-yl)-1,3-dioxoisoindolin-5-yl)oxy)-3,6,9,12-tetraoxatetradecyl)piperazin-1-yl)methyl)-1-((1s,4s)-4-(hydroxymethyl)cyclohexyl)-1H-benzo[d]imidazol-2-yl)-3-(trifluoromethyl)benzamide] returned an IC50 on IRAK4 [1] of less than 30 nM. Besides, the “IRAK4 by western % degraded” value at IRAK4 [2] (Table 1, 24 hours) amounted to 76%. The values for the half-maximal degradation concentration (DC50) on IRAK4 [2] (setting [5]) and at IRAK4 [2] (setting [6]) were 40 nM and 30 to 100 nM, respectively. Moreover, at IRAK4 [2] (setting [7]), the Dmax lay in the range of 50 to 70%. Also, the “IRAK4 by ELISA % degraded” value on IRAK4 [3] is reported as 80%.
`COc1cc2nn(C3CCN(CCOCCOc4ccc5c(c4)CN(C4CCC(=O)NC4=O)C5=O)CC3)cc2cc1NC(=O)c1cccc(C(F)(F)F)n1` (stereo not shown) [compound 60, N-(2-(1-(2-(2-((2-(2,6-dioxopiperidin-3-yl)-1-oxoisoindolin-5-yl)oxy)ethoxy)ethyl)piperidin-4-yl)-6-methoxy-2H-indazol-5-yl)-6-(trifluoromethyl)picolinamide]: the DC50 on IRAK4 [4] was 3.5 nM; at IRAK4 [2] (setting [6]), less than 30 nM; at IRAK4 [2] (western blot, 24 hour incubation, read-out: DC50 (IRAK4 degradation)) it was 3.5 nM. For the same molecule, the Dmax at IRAK4 [4] (read-out: Dmax) is 73%; at IRAK4 [2] (setting [7]), 50 to 70%; at IRAK4 [2] (western blot, 24 hour incubation, read-out: Dmax (IRAK4 degradation)), 73%. For the same molecule, the half-inhibitory concentration (IC50) at IRAK4 [1] is less than 30 nM.
On to `O=C1CCC(N2C(=O)c3ccc(OCCOCCOCCOCCOC[C@H]4CC[C@@H](n5c(NC(=O)c6cccc(C(F)(F)F)c6)nc6cc(F)ccc65)CC4)cc3C2=O)C(=O)N1` (stereo partly shown) [compound 48, N-(1-((1s,4s)-4-(13-((2-(2,6-dioxopiperidin-3-yl)-1,3-dioxoisoindolin-5-yl)oxy)-2,5,8,11-tetraoxatridecyl)cyclohexyl)-5-fluoro-1H-benzo[d]imidazol-2-yl)-3-(trifluoromethyl)benzamide], for which the 50% inhibitory concentration (IC50) at IRAK4 [1] was not below 1000 nM. At IRAK4 [2] (setting [6]), the half-maximal degradation concentration (DC50) was not below 1000 nM.
As for `COc1cc2nn(C3CCN(CCOCCOCCOc4ccc5c(c4)C(=O)N(C4CCC(=O)NC4=O)C5=O)CC3)cc2cc1NC(=O)c1cccc(C(F)(F)F)n1` (stereo not shown) [compound 59, N-(2-(1-(2-(2-(2-((2-(2,6-dioxopiperidin-3-yl)-1,3-dioxoisoindolin-5-yl)oxy)ethoxy)ethoxy)ethyl)piperidin-4-yl)-6-methoxy-2H-indazol-5-yl)-6-(trifluoromethyl)picolinamide], the IC50 at IRAK4 [1] was less than 30 nM. Besides, the DC50 at IRAK4 [2] (setting [6]) is 300 to 1000 nM. Besides, on IRAK4 [2] (setting [7]), the greatest degradation seen (Dmax) fell in the range of 50 to 70%.
At IRAK4 [1], `CN(CCOc1ccc2c(c1)C(=O)N(C1CCC(=O)NC1=O)C2=O)c1cccc(-n2c(NC(=O)c3cccc(C(F)(F)F)c3)nc3cc(F)ccc32)c1` (stereo not shown) [compound 50, N-(1-(3-((2-((2-(2,6-dioxopiperidin-3-yl)-1,3-dioxoisoindolin-5-yl)oxy)ethyl)(methyl)amino)phenyl)-5-fluoro-1H-benzo[d]imidazol-2-yl)-3-(trifluoromethyl)benzamide] returned an IC50 not below 1000 nM. Further, the DC50 at IRAK4 [2] (setting [6]) was not below 1000 nM.
On to `N#Cc1ccc2ncnc(N[C@H]3CC[C@H](N4CCN(S(=O)(=O)CCOCCOc5ccc6c(c5)C(=O)N(C5CCC(=O)NC5=O)C6=O)CC4)CC3)c2c1` (stereo partly shown) [compound 34], for which the IC50 against IRAK4 [1] is not below 1000 nM. For the same molecule, the DC50 at IRAK4 [2] (setting [6]) was not below 1000 nM.
For `O=C1CCC(N2C(=O)c3ccc(OCCOCCOCCOCCN4CCN(Cc5ccc6c(c5)nc(NC(=O)c5cccc(C(F)(F)F)c5)n6[C@H]5CC[C@@H](CO)CC5)CC4)cc3C2=O)C(=O)N1` (stereo partly shown) [compound 4, N-(5-((4-(2-(2-(2-(2-((2-(2,6-dioxopiperidin-3-yl)-1,3-dioxoisoindolin-5-yl)oxy)ethoxy)ethoxy)ethoxy)ethyl)piperazin-1-yl)methyl)-1-((1s,4s)-4-(hydroxymethyl)cyclohexyl)-1H-benzo[d]imidazol-2-yl)-3-(trifluoromethyl)benzamide], on IRAK4 [1], the IC50 was less than 30 nM. In addition, the “IRAK4 by western % degraded” value at IRAK4 [2] (Table 1, 24 hours) amounted to 87%. Further, the half-maximal degradation concentration (DC50) was 25 nM on IRAK4 [2] (setting [5]) and less than 30 nM at IRAK4 [2] (setting [6]). The Dmax on IRAK4 [2] (setting [7]) was more than 70%. Besides, at IRAK4 [3], the “IRAK4 by ELISA % degraded” value is 89%.
In turn, “N-(1-((1s,4s)-4-(13-((2-(2,6- dioxopiperidin-3-yl)-1,3- dioxoisoindolin-5-yl)oxy)- 2,5,8,11- tetraoxatetradecyl)cyclohexyl)- 5-(piperidin-1-ylmethyl)-1H- benzo[d]imidazol-2-yl)-3- (trifluoromethyl)benzamide [compound 42]” registered an IC50 at IRAK4 [1] of 300 to 1000 nM. In addition, the DC50 on IRAK4 [2] (setting [6]) was not below 1000 nM.
Turning to `O=C1CCC(N2C(=O)c3ccc(OCCOCCOC[C@H]4CC[C@@H](n5c(NC(=O)c6cccc(C(F)(F)F)c6)nc6cc(F)ccc65)CC4)cc3C2=O)C(=O)N1` (stereo partly shown) [compound 46, N-(1-((1s,4s)-4-((2-(2-((2-(2,6-dioxopiperidin-3-yl)-1,3-dioxoisoindolin-5-yl)oxy)ethoxy)ethoxy)methyl)cyclohexyl)-5-fluoro-1H-benzo[d]imidazol-2-yl)-3-(trifluoromethyl)benzamide], at IRAK4 [1], the IC50 was not below 1000 nM. Besides, the 50% degradation concentration (DC50) on IRAK4 [2] (setting [6]) was not below 1000 nM.
Consider `O=C1CCC(N2C(=O)c3ccc(OCCOCCOC[C@H]4CC[C@@H](n5c(NC(=O)c6cccc(C(F)(F)F)c6)nc6cc(CN7CCCCC7)ccc65)CC4)cc3C2=O)C(=O)N1` (stereo partly shown) [compound 44, N-(1-((1s,4s)-4-((2-(2-((2-(2,6-dioxopiperidin-3-yl)-1,3-dioxoisoindolin-5-yl)oxy)ethoxy)ethoxy)methyl)cyclohexyl)-5-(piperidin-1-ylmethyl)-1H-benzo[d]imidazol-2-yl)-3-(trifluoromethyl)benzamide], for which the concentration for half-maximal inhibition (IC50) on IRAK4 [1] was not below 1000 nM. In addition, the 50% degradation concentration (DC50) at IRAK4 [2] (setting [6]) is not below 1000 nM.
`COc1cc2nn(C3CCN(CCOCCOCCOc4ccc5c(c4)CN(C4CCC(=O)NC4=O)C5=O)CC3)cc2cc1NC(=O)c1cccc(C(F)(F)F)n1` (stereo not shown) [compound 61, N-(2-(1-(2-(2-(2-((2-(2,6-dioxopiperidin-3-yl)-1-oxoisoindolin-5-yl)oxy)ethoxy)ethoxy)ethyl)piperadin-4-yl)-6-methoxy-2H-indazol-5-yl)-6-(trifluoromethyl)picolinamide] gave an IC50 at IRAK4 [1] of less than 30 nM. Besides, on IRAK4 [2] (setting [6]), the half-maximal degradation concentration (DC50) was not below 1000 nM.
`Cc1ccc(-n2nc(N3CCN(CCOCCOCCOc4ccc5c(c4)C(=O)N(C4CCC(=O)NC4=O)C5=O)CC3)cc2NC(=O)c2cnn3cccnc23)nc1` (stereo not shown) [compound 25, N-(3-(4-(2-(2-(2-((2-(2,6-dioxopiperidin-3-yl)-1,3-dioxoisoindolin-5-yl)oxy)ethoxy)ethoxy)ethyl)piperazin-1-yl)-1-(5-methylpyridin-2-yl)-1H-pyrazol-5-yl)pyrazolo[1,5-a]pyrimidine-3-caboxamide]: the concentration for half-maximal inhibition (IC50) at IRAK4 [1] was 30 to 100 nM. Also, the DC50 on IRAK4 [2] (setting [6]) was not below 1000 nM.
On IRAK4 [1], `Cc1ccc(-n2nc(N3CCN(CCOCCOCCOCCOCC(=O)N[C@H](C(=O)N4C[C@H](O)C[C@H]4C(=O)NCc4ccc(-c5scnc5C)cc4)C(C)(C)C)CC3)cc2NC(=O)c2cnn3cccnc23)nc1` [compound 28, N-(3-(4-((S)-16-((2S,4R)-4-hydroxy-2-((4-(4-methylthiazol-5-yl)benzyl)carbamoyl)pyrrolidine-1-carbonyl)-17,17-dimethyl-14-oxo-3,6,9,12-tetraoxa-15-azapentadecyl)piperazin-1-yl)-1-(5-methylpyridin-2-yl)-1H-pyrazol-5-yl)pyrazolo[1,5-a]pyrimidine-3-carboxamide] came in with an IC50 of 300 to 1000 nM. Besides, the half-maximal degradation concentration (DC50) at IRAK4 [2] (setting [6]) was not below 1000 nM.
